# Values joined by “and” are separate entries in the source; they are usually repeats but may differ in a detail not shown here. Equal values may be shown once.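 All cell lines were grown in 96-well plates and treated with compound for 48 hours. GI50 = concentration required for 50% inhibition of growth. The concentration for full growth arrest is given as TGI.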 *1 amine or outer side, *2 acyl side, *3 side chain or, on linkers, in order; H or OH if unused. Where a SMILES comes first, the peptide text is derived from it. Bridges are numbered along the chain shown (N, C = ends). Roman numbers before positions name the chains, in order. [ ]: non-standard residue; d: D form. Actinocin(9to1) = Cc1c2oc3c(C)ccc(C(=O)[*:1])c3nc-2c(C(=O)[*:2])c(N)c1=O; NMeV = CN[CH](C(=O)O)C(C)C; Sar = CNCC(=O)O
# System: MDA-MB-468 breast
# Experiment: inhibition of tumour cell growth, NCI panel, 48 h
Structure (SMILES),GI50,TGI
CCN1C(=O)N(CC)C2SC(N/N=C/c3ccccc3F)=NC21 (centres undefined),296 nM,24.7 µM
Cc1cc(C(=O)Nc2cc(Oc3ccc4nc(NC(=O)C5CC5)cn4n3)ccc2C)n(C)n1,5510 nM,> 10 µM
CN(C)C[C@H]1CCn2c(c(C3=C(c4cn(C)c5ccccc45)C(=O)NC3=O)c3ccccc32)C1,3850 nM,7.86 µM
COc1cc(-c2nn(-c3cccc(NC(=O)NCCNS(=O)(=O)c4ccc(Cl)cc4)c3)cc2-c2ccncc2)ccc1Cl,332 nM,1.67 µM
Nc1ncnc2c1c(-c1ccc(Oc3ccccc3)cc1)nn2C[C@H]1SSC[C@@H]1O,351 nM,1.63 µM
COc1cc(OC)c(/C=C/C(=O)c2ccc(Nc3ncnc4ccccc34)cc2)c(OC)c1,306 nM,1.55 µM
COc1ccc(C(C#N)=C2C=CC(=NO)C=C2)cc1,833 nM,4.56 µM
COc1cccc(Sc2ccc([N+](=O)[O-])c3no[n+]([O-])c23)c1,2420 nM,7.61 µM
CC(CN(C)C)S(=O)(=O)c1ccc(-c2cnc(N)c(C(=O)Nc3ccccc3)n2)cc1 (centres undefined),4980 nM,20.4 µM
COc1cccc(-n2ncc3c(N/N=C/c4ccc(C)cc4)ncnc32)c1,> 25000 nM,> 25 µM
N#Cc1cnc2ccc(-c3cnc4n[nH]nc4c3)cc2c1N1CCc2cc(F)c(Cl)cc21,1990 nM,10.7 µM
CN(C)C(=S)/N=c1\ssc(=S)n1Cc1cccs1,4070 nM,> 100 µM
c1cc(CN2CCCNCCNCCCNCC2)ccc1CN1CCCNCCNCCCNCC1,> 100000 nM,> 100 µM
C=CCNc1nc(O)c(/C=C2\C=Nc3ncccc32)s1,1920 nM,4.13 µM
CN(C)c1ccc(C(=N)c2ccc(N(C)C)cc2)cc1,509 nM and 759 nM,3 µM and 3.52 µM
CC(=O)O[C@@]12CO[C@@H]1C[C@H](O)[C@@]1(C)C(=O)[C@H](O)C3=C(C)[C@@H](OC(=O)[C@H](O)[C@@H](NC(=O)OC(C)(C)C)c4ccccc4)C[C@@](O)([C@@H](OC(=O)c4ccccc4)C12)C3(C)C (some centres undefined),< 5 nM,–
O=C(Nc1ccc2ncnc(Nc3ccc(Oc4cccc(F)c4)c(Cl)c3)c2c1)c1ccc(CN2CCOCC2)cc1,1500 nM,6.57 µM
Cc1c2oc3c(C)ccc(C(=O)OC(C)C4NC(=O)C(C(C)C)N(C)C(=O)CN(C)C(=O)C5CCCN5C(=O)C(C(C)C)NC4=O)c3nc-2c(C(=O)OC(C)C2NC(=O)C(C(C)C)N(C)C(=O)CN(C)C(=O)C3CCCN3C(=O)C(C(C)C)NC2=O)c(N)c1=O (centres undefined) (I: cyclo([Sar][NMeV]TVP) / II: cyclo([Sar][NMeV]TVP); linker I:3-II:3 via Actinocin(9to1); configuration not given here),< 10 nM,0.0152 µM
CC(C)(C)Nc1nc2c(OCCc3ccccc3)cccn2c1-c1ccc(Cl)cc1,16900 nM,45.3 µM
CCCCC[C@H]1CC=C2C(=O)C=C[C@@H]2CC=CCCCC(=O)O[C@@H](CCCCC)CC=C2C(=O)C=C[C@@H]2CC=CCCCC(=O)O[C@@H](CCCCC)CC=C2C(=O)C=C[C@@H]2CC=CCCCC(=O)O1,272 nM,0.847 µM

Structure (SMILES),GI50,TGI
C=C1C(=O)O[C@H]2[C@H]1CC/C(COC(=O)c1cn(C)c3ccccc13)=C\CC[C@@]1(C)O[C@@H]21,446 nM,1.99 µM
CCCCCCCN(CCCCCCC)C(=N)c1ccnc2ccccc12,1700 nM,3.37 µM
CCN1C(=O)N(CC)C2C1NN=c1s/c(=C\c3cccs3)c(=O)n12 (centres undefined),113 nM,> 100 µM
CC(=Nc1ccccc1)C1=C(O)C(Cc2cccc(F)c2)NC1=O (centres undefined),36.4 nM,62 µM
C=C(C)[C@@H]1CC[C@]2(COCCCNCCCN)CC[C@]3(C)[C@H](CC[C@@H]4[C@@]5(C)CC[C@H](OCCCN)C(C)(C)[C@@H]5CC[C@]43C)[C@@H]12,882 nM,1.74 µM
COc1ccc(-c2nsc3c2NC(=O)CC3c2ccc3c(c2)OCCO3)cc1 (centres undefined),328 nM,> 100 µM
Oc1[nH]c(N=C2N=c3ccccc3=N2)c2ccccc12,11200 nM,31.2 µM
CCN(CC)CCCOc1ccc2ncnc(Nc3ccc(Oc4cccc(C(F)(F)F)c4)c(Cl)c3)c2c1,879 nM,2.33 µM
O=C1/C(=C/c2ccc(F)c(F)c2)CN(C(=O)C(Cl)Cl)C/C1=C\c1ccc(F)c(F)c1,158 nM,0.352 µM
Clc1ccccc1[C@@H]1C[C@@H]2Cc3cc(Br)c4ccccc4c3N1O2,1810 nM,5.67 µM
CCC#CC[C@H](O)C/C=C1/C(=O)C=C[C@@H]1C/C=C\CCCC(=O)OC,1230 nM,3.98 µM
O=C1NCN(c2ccccc2)C12CCN(CCCC(c1ccc(F)cc1)c1ccc(F)cc1)CC2,1770 nM,4.37 µM
CC/C=C\C[C@H](O)C/C=C1/C(=O)C=C[C@@H]1C/C=C\CCCC(=O)OC(C)C,1290 nM,3.06 µM
O=P(O)(O)OCC1OC(n2cnc3c(NCc4ccco4)ncnc32)C(O)C1O (centres undefined),2270 nM,7.66 µM
COC12C=C/C(=C(/C(=O)OCCSc3ccnn3C)C(=O)CCCCCCCCC3(OC)C=C/C(=C(/C(=O)OCCSc4ccnn4C)C(=O)CCCCCCCC1)O3)O2,951 nM,4.13 µM
C[C@]12CC[C@@H]3c4ccc(O)cc4CC[C@H]3[C@@H]1CC[C@@H]2NS(=O)(=O)c1cccc(Cl)c1,1980 nM,8.12 µM
c1ccc2cc(Cn3cc[n+](Cc4ccc5ccccc5c4)c3)ccc2c1,250 nM,0.849 µM
C=C1C(=O)O[C@H]2[C@H]1CC/C(Cn1cc(Cc3c[nH]c4ccccc34)nn1)=C\CC[C@@]1(C)O[C@@H]21,1450 nM,3.88 µM
CCCCCCCCCCCC[N+](C)(C)Cc1ccccc1,508 nM,4.25 µM
O=C1Nc2ccccc2/C1=C\c1cccc(/C=C2/C(=O)Nc3ccccc32)n1,336 nM,1.38 µM
